According to patent US10168342B2, “Lipid probes and uses thereof” (THE SCRIPPS RESEARCH INSTITUTE, priority 2015, dated 2019):
Where two headings read alike, the source gives them in different places.

Tests used:
[1] = molecular target: T1, AEA-DA lipid probe targets in Neuro2a cells (Mus musculus, UniProt Q9WV54)
T1 sequence (Q9WV54 19-394): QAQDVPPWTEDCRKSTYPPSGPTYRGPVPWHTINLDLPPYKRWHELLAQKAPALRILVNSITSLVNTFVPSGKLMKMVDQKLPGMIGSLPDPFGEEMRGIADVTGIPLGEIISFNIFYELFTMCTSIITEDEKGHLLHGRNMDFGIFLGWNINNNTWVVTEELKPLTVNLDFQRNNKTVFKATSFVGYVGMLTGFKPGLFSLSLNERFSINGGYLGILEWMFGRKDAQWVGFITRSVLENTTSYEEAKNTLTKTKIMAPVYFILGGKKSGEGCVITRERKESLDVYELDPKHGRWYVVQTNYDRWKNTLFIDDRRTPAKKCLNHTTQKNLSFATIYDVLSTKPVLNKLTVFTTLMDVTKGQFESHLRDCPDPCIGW

[2] = molecular target: T2, AEA-DA lipid probe targets in Neuro2a cells (Mus musculus, UniProt P37040)
T2 sequence (P37040 1-678): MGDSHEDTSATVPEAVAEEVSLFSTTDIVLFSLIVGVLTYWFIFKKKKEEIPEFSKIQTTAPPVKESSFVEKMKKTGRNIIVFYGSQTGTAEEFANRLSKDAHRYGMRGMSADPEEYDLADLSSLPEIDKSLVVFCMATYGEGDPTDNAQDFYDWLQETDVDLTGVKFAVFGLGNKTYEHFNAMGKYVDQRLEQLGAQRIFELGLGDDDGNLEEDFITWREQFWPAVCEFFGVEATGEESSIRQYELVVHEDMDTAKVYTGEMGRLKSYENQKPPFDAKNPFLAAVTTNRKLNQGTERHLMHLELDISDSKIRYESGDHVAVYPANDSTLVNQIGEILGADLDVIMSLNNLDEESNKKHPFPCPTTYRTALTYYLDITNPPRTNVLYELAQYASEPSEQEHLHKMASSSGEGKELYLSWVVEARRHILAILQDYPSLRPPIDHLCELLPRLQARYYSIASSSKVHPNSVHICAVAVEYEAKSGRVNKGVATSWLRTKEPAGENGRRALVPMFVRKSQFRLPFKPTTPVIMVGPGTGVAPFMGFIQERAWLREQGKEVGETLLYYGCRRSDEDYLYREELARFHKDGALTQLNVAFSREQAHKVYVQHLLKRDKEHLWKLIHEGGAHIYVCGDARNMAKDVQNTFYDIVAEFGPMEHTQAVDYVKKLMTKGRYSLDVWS

[3] = molecular target: AEA-DA lipid probe targets in Neuro2a cells (Mus musculus, UniProt Q9Z0V8)
[4] = molecular target: T3, AEA-DA lipid probe targets in Neuro2a cells (Mus musculus, UniProt Q8BMK4)
T3 sequence (Q8BMK4 1-575): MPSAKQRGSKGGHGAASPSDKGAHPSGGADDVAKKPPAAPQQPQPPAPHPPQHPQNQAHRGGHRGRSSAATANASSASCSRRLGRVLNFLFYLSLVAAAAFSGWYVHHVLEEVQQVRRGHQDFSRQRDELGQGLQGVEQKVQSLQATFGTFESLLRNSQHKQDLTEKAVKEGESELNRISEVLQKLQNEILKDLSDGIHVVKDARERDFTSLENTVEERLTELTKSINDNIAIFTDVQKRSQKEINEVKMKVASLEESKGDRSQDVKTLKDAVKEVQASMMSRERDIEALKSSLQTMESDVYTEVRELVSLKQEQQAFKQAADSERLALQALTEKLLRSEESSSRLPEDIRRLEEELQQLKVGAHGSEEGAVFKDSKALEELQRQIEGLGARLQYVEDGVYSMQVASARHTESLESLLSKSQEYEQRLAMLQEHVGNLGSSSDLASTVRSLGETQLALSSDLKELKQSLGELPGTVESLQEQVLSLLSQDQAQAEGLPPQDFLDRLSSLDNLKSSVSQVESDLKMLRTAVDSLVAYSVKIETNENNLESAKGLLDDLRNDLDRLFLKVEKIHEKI

[5] = molecular target: T4, AEA-DA lipid probe targets in Neuro2a cells (Mus musculus, UniProt Q5U680)
T4 sequence (Q5U680 1-274): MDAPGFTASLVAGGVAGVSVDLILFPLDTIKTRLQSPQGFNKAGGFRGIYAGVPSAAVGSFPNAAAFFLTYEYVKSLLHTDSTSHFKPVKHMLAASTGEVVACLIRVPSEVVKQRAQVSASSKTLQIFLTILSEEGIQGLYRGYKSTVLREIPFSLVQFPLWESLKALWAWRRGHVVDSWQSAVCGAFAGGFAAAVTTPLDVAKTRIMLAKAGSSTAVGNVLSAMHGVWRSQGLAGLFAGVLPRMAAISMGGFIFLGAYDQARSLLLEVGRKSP

[6] = molecular target: T5, AEA-DA lipid probe targets in Neuro2a cells (Mus musculus, UniProt Q9CR67)
T5 sequence (Q9CR67 1-247): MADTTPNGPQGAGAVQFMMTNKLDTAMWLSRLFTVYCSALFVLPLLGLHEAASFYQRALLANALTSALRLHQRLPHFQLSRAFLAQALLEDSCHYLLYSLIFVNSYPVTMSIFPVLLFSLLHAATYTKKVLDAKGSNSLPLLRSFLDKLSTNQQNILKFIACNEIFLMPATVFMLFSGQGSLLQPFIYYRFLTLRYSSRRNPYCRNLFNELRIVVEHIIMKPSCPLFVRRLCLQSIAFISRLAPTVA

[7] = molecular target: AEA-DA lipid probe targets in Neuro2a cells (Mus musculus, UniProt P08113)
[8] = molecular target: AEA-DA lipid probe targets in Neuro2a cells (Mus musculus, UniProt Q91WD5)
AEA-DA lipid probe targets in Neuro2a cells (Mus musculus, UniProt Q91WD5), sequence (Q91WD5 34-463): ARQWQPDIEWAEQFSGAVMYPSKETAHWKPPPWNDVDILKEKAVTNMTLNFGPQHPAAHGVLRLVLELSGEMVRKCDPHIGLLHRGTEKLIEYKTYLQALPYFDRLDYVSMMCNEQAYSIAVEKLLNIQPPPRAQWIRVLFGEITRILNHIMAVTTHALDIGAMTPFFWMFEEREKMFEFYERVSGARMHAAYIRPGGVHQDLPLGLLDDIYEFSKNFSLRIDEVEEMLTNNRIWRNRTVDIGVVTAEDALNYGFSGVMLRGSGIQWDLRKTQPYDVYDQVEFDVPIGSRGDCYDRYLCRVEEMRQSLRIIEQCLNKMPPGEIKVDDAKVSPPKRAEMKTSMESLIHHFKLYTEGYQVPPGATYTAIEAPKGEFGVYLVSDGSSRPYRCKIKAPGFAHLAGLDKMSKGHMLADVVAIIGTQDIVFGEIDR

AEA-DA lipid probe targets in Neuro2a cells (Mus musculus, UniProt P08113), sequence (P08113 22-802): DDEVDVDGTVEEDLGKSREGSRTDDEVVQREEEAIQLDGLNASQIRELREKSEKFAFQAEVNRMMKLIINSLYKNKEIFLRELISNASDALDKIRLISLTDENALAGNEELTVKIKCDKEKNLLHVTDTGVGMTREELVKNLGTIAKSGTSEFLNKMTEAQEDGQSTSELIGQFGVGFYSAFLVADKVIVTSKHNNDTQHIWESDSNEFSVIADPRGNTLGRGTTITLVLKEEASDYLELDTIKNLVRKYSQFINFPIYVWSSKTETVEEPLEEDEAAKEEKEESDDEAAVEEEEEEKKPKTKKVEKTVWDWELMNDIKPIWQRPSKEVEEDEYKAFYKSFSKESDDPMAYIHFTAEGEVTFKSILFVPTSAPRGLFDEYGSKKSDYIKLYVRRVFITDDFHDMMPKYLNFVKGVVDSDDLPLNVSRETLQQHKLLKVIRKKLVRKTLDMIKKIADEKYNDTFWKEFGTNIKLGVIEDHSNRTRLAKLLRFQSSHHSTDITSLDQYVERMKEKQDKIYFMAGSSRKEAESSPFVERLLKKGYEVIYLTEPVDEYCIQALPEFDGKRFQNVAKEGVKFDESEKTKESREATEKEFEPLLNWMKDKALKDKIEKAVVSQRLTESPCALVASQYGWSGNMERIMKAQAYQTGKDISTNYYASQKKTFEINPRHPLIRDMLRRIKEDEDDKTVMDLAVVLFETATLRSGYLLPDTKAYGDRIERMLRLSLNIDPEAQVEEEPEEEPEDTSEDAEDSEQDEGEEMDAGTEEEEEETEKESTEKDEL
AEA-DA lipid probe targets in Neuro2a cells (Mus musculus, UniProt Q9Z0V8), sequence (Q9Z0V8 whole entry): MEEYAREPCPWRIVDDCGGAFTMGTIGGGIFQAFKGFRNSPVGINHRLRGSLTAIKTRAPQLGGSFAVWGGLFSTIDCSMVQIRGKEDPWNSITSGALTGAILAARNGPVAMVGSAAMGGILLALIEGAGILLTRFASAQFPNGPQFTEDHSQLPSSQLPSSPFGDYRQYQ

Structure (SMILES): CCCCC/C=C\C/C=C\C/C=C\C/C=C\CCCC(=O)NCCO [AEA, anandamide, reference compound]
- SILAC ratio Asah1 ([1]; competitor 200 μM): 0.8
- SILAC ratio, Por ([2]; competitor 200 μM): 2.0
- SILAC ratio, Timm17a ([3]; competitor 200 μM): 1.5
- SILAC ratio, Ckap4 ([4]; competitor 200 μM): 2.0
- SILAC ratio, Slc25a26 ([5]; competitor 200 μM): 1.0
- SILAC ratio, Tmem33 ([6]; competitor 200 μM): 1.8
- SILAC ratio Hsp90b1 ([7]; competitor 200 μM): 1.1
- SILAC ratio Ndufs2 ([8]; competitor 200 μM): 1.3

Structure (SMILES): O=C(/C=C/c1cccnc1)NCCCCC1CCN(C(=O)c2ccccc2)CC1 [FK-866, reference compound]
- SILAC ratio Asah1 ([1]; competitor 25 μM): 1.3
- SILAC ratio, Por ([2]; competitor 25 μM): 1.2
- SILAC ratio, Timm17a ([3]; competitor 25 μM): 1.1
- SILAC ratio, Ckap4 ([4]; competitor 25 μM): 1.1
- SILAC ratio, Slc25a26 ([5]; competitor 25 μM): 0.8
- SILAC ratio, Tmem33 ([6]; competitor 25 μM): 1.2
- SILAC ratio Hsp90b1 ([7]; competitor 25 μM): 1.2
- SILAC ratio Ndufs2 ([8]; competitor 25 μM): 1.7

Structure (SMILES): CN1CCN(C(=O)c2c(-c3ccccc3)c3cc([N+](=O)[O-])ccc3n2C)CC1 [KML110, (1-Methyl-5-nitro-3-phenyl-1H-indol-2-yl)(4-methylpiperazin-1-yl)methanone]
- SILAC ratio Asah1 ([1]; competitor 25 μM): 1.2
- SILAC ratio, Por ([2]; competitor 25 μM): 1.6
- SILAC ratio, Timm17a ([3]; competitor 25 μM): 1.5
- SILAC ratio, Ckap4 ([4]; competitor 25 μM): 1.4
- SILAC ratio, Slc25a26 ([5]; competitor 25 μM): 0.7
- SILAC ratio, Tmem33 ([6]; competitor 25 μM): 1.4
- SILAC ratio Hsp90b1 ([7]; competitor 25 μM): 1.4
- SILAC ratio Ndufs2 ([8]; competitor 25 μM): 1.3

Structure (SMILES): CN1CCN(C(=O)c2[nH]c3ccc([N+](=O)[O-])cc3c2-c2ccccc2)CC1 [MJN228, (4-Methylpiperazin-1-yl)(5-nitro-3-phenyl-1H-indol-2-yl)methanone]
- SILAC ratio Asah1 ([1]; competitor 10 μM): 1.4
- SILAC ratio Asah1 ([1]; competitor 25 μM): 1.6
- SILAC ratio Asah1 ([1]; competitor 50 μM): 2.2
- SILAC ratio Asah1 ([1]; competitor 100 μM): 2.1
- SILAC ratio, Por ([2]; competitor 10 μM): 1.4
- SILAC ratio, Por ([2]; competitor 25 μM): 1.8
- SILAC ratio, Por ([2]; competitor 50 μM): 2.0
- SILAC ratio, Por ([2]; competitor 100 μM): 3.1
- SILAC ratio, Timm17a ([3]; competitor 10 μM): 1.1
- SILAC ratio, Timm17a ([3]; competitor 25 μM): 1.4
- SILAC ratio, Timm17a ([3]; competitor 50 μM): 1.4
- SILAC ratio, Timm17a ([3]; competitor 100 μM): 2.7
- SILAC ratio, Ckap4 ([4]; competitor 10 μM): 1.3
- SILAC ratio, Ckap4 ([4]; competitor 25 μM): 1.4
- SILAC ratio, Ckap4 ([4]; competitor 50 μM): 1.3
- SILAC ratio, Ckap4 ([4]; competitor 100 μM): 1.8
- SILAC ratio, Slc25a26 ([5]; competitor 10 μM): 0.9
- SILAC ratio, Slc25a26 ([5]; competitor 25 μM): 0.7
- SILAC ratio, Slc25a26 ([5]; competitor 50 μM): 0.3
- SILAC ratio, Slc25a26 ([5]; competitor 100 μM): 0.4
- SILAC ratio, Tmem33 ([6]; competitor 10 μM): 1.3
- SILAC ratio, Tmem33 ([6]; competitor 25 μM): 1.5
- SILAC ratio, Tmem33 ([6]; competitor 50 μM): 1.5
- SILAC ratio, Tmem33 ([6]; competitor 100 μM): 2.0
- SILAC ratio Hsp90b1 ([7]; competitor 10 μM): 1.3
- SILAC ratio Hsp90b1 ([7]; competitor 25 μM): 1.3
- SILAC ratio Hsp90b1 ([7]; competitor 50 μM): 1.5
- SILAC ratio Hsp90b1 ([7]; competitor 100 μM): 1.4
- SILAC ratio Ndufs2 ([8]; competitor 10 μM): 1.3
- SILAC ratio Ndufs2 ([8]; competitor 25 μM): 1.3
- SILAC ratio Ndufs2 ([8]; competitor 100 μM): 1.1

Structure (SMILES): C=CCN(C)CCCCCCOc1ccc(C(=O)c2ccc(Br)cc2)c(F)c1 [Ro 48-8071, reference compound]
- SILAC ratio Asah1 ([1]; competitor 25 μM): 1.0
- SILAC ratio, Por ([2]; competitor 25 μM): 1.5
- SILAC ratio, Timm17a ([3]; competitor 25 μM): 2.7
- SILAC ratio, Ckap4 ([4]; competitor 25 μM): 1.1
- SILAC ratio, Slc25a26 ([5]; competitor 25 μM): 0.7
- SILAC ratio, Tmem33 ([6]; competitor 25 μM): 1.1
- SILAC ratio Hsp90b1 ([7]; competitor 25 μM): 0.9
- SILAC ratio Ndufs2 ([8]; competitor 25 μM): 1.2
